For 17 molecules, IC50 and Mortality results are on record in US7915402B2, “Antioxidant inflammation modulators: oleanolic acid derivatives with saturation in the C-ring” (Reata Pharmaceuticals, Inc., priority 2008, dated 2011).

One data set relates to RAW264.7 macrophages. Nature of the data set: Cell viability, WST-1 reagent. Particulars: RAW264.7 (20 ng/ml IFNγ). The format is cell-based, mouse. As to the method: (§1) FIGS. 1-8 and 32-34. Inhibition of NO Production. RAW264.7 macrophages were pre-treated with DMSO or drugs at various concentrations (nM) for 2 hours, then treated with 20 ng/ml IFNγ for 24 hours. NO concentration in media was determined using a Griess reagent system; cell viability was determined using WST-1 reagent.
(§2) Nitric Oxide production and cell viability. RAW264.7 macrophages were pre-treated with DMSO or drugs for 2 hours, then treated with recombinant mouse IFNγ (Sigma) for 24 hours. NO concentration in media was determined using the Griess reagent system (Promega). Cell viability was determined using WST-1 reagent (Roche).

Data set [1] has as its system IFNγ-induced NO production in RAW264.7 macrophages. The experiment in a line: Suppression of IFNγ-induced NO production (Griess reagent). Particulars: RAW264.7, 20 ng/ml IFNγ 24 h, 2 h pre-treatment. The format is cell-based, mouse. The protocol: as §1, §2
The subject of another data set is mice. Nature of the data set: 9-day toxicity study in mice. Particulars: sesame oil, p.o. daily for 9 days. The format is in vivo. The protocol:
In a second experiment, six additional compound differing only in the saturation or non-saturation of the C ring were tested for toxicity in mice by daily oral administration for 9 days, using sesame oil as the vehicle.

On to `CC(=O)[C@]12CCC(C)(C)C[C@H]1[C@H]1C(=O)C[C@@H]3[C@@]4(C)C=C(C#N)C(=O)C(C)(C)[C@@H]4CC[C@@]3(C)[C@]1(C)CC2` [Compound 63308, (4aR,6aR,6bR,8aS,12aS,12bR,14aR,14bR)-8a-acetyl-4,4,6a,6b,11,11,14b-heptamethyl-3,13-dioxo-3,4,4a,5,6,6a,6b,7,8,8a,9,10,11,12,12a,12b,13,14,14a,14b-icosahydropicene-2-carbonitrile], for which the results for the IC50 (with RAW264.7 macrophages (Mus musculus); in data set [1] (Mus musculus)) were greater than 200 nM and roughly 25 nM, respectively.
In the same order, the values of `CC1(C)CC[C@]2(c3nn[nH]n3)CC[C@]3(C)[C@H](C(=O)C[C@@H]4[C@@]5(C)C=C(C#N)C(=O)C(C)(C)[C@@H]5CC[C@]43C)[C@@H]2C1` [Compound 63229, (4aR,6aR,6bR,8aS,12aS,12bR,14aR,14bR)-4,4,6a,6b,11,11,14b-heptamethyl-3,13-dioxo-8a-(2H-tetrazol-5-yl)-3,4,4a,5,6,6a,6b,7,8,8a,9,10,11,12,12a,12b,13,14,14a,14b-icosahydropicene-2-carbonitrile] are greater than 200 nM and greater than 200 nM.
For `COC(=O)[C@]12CCC(C)(C)C[C@H]1[C@H]1C(=O)CC3[C@@]4(C)CC(C#N)=C(O)C(C)(C)[C@@H]4CC[C@@]3(C)[C@]1(C)CC2` (stereo partly drawn) [Compound 63250, (4aS,6aR,6bR,8aR,12aR,14aR,14bS)-methyl 11-cyano-10-hydroxy-2,2,6a,6b,9,9,12a-heptamethyl-14-oxo-1,2,3,4,4a,5,6,6a,6b,7,8,8a,9,12,12a,12b,13,14,14a,14b-icosahydropicene-4a-carboxylate], the IC50 (in the data set on RAW264.7 macrophages (Mus musculus); in data set [1] (Mus musculus)) was greater than 200 nM in each case.
Take `Cn1nnc([C@]23CCC(C)(C)C[C@H]2[C@H]2C(=O)C[C@@H]4[C@@]5(C)C=C(C#N)C(=O)C(C)(C)[C@@H]5CC[C@@]4(C)[C@]2(C)CC3)n1` [Compound 63230, (4aR,6aR,6bR,8aS,12aS,12bR,14aR,14bR)-4,4,6a,6b,11,11,14b-heptamethyl-8a-(2-methyl-2H-tetrazol-5-yl)-3,13-dioxo-3,4,4a,5,6,6a,6b,7,8,8a,9,10,11,12,12a,12b,13,14,14a,14b-icosahydropicene-2-carbonitrile]: the IC50 with RAW264.7 macrophages (Mus musculus) is greater than 200 nM; in data set [1] (Mus musculus), roughly 50 nM.
In the case of `CC1(C)CC[C@]2(C(=O)NCC(F)(F)F)CC[C@]3(C)[C@H](C(=O)C[C@@H]4[C@@]5(C)CC(C#N)C(=O)C(C)(C)[C@@H]5CC[C@]43C)[C@@H]2C1` (stereo partly drawn) [Compound 63227, (4aS,6aR,6bR,8aR,12aR,12bR,14aR,14bS)-11-cyano-2,2,6a,6b,9,9,12a-heptamethyl-10,14-dioxo-N-(2,2,2-trifluoroethyl)docosahydropicene-4a-carboxamide], the IC50 (with RAW264.7 macrophages (Mus musculus); in data set [1] (Mus musculus)) was greater than 200 nM in each case.
With `COC(=O)[C@]12CCC(C)(C)C[C@H]1C1OC(O)C[C@@H]3[C@@]4(C)C=C(C#N)C(=O)C(C)(C)[C@@H]4CC[C@@]3(C)[C@]1(C)CC2` (stereo partly drawn) [Compound 63289, (4aR,6aR,6bS,8aS,12aR,15aR,15bR)-methyl 2-cyano-14-hydroxy-4,4,6a,6b,11,11,15b-heptamethyl-3-oxo-3,4,4a,5,6,6a,6b,7,8,8a,9,10,11,12,12a,12b,14,15,15a,15b-icosahydrodinaphtho[1,2-b:2′,1′-d]oxepine-8a-carboxylate], the IC50 (in the data set on RAW264.7 macrophages (Mus musculus); in data set [1] (Mus musculus)) was greater than 200 nM throughout.
Take `CONC(=O)[C@]12CCC(C)(C)C[C@H]1[C@H]1C(=O)C=C3[C@@]4(C)C=C(C#N)C(=O)C(C)(C)[C@@H]4CC[C@@]3(C)[C@]1(C)CC2` [Compound 63166, reference compound]: the Mortality with mice (3 mg/kg), with mice (10 mg/kg) and in the data set with mice (30 mg/kg) was 0/5 each time.
`CC1(C)CC[C@]2(C(=O)NCC(F)(F)F)CC[C@]3(C)[C@H]([C@H](O)C[C@@H]4[C@@]5(C)C=C(C#N)C(=O)C(C)(C)[C@@H]5CC[C@]43C)[C@@H]2C1` [Compound 63268]: the IC50 (in the data set with RAW264.7 macrophages; in data set [1]) was greater than 200 nM each time.
Take `CONC(=O)[C@]12CCC(C)(C)C[C@H]1[C@H]1C(=O)C[C@@H]3[C@@]4(C)C=C(C#N)C(=O)C(C)(C)[C@@H]4CC[C@@]3(C)[C@]1(C)CC2` [Compound 63325, (4aS,6aR,6bR,8aR,12aR,12bR,14aR,14bS)-11-cyano-N-methoxy-2,2,6a,6b,9,9,12a-heptamethyl-10,14-dioxo-1,2,3,4,4a,5,6,6a,6b,7,8,8a,9,10,12a,12b,13,14,14a,14b-icosahydropicene-4a-carboxamide]: the Mortality in the data set with mice (3 mg/kg), in the data set on mice (10 mg/kg) and in the data set on mice (30 mg/kg) was 0/5 throughout. Besides, the IC50 in data set [1] (Mus musculus) was roughly 50 nM.
As for `COC(=O)[C@]12CCC(C)(C)C[C@H]1[C@H]1C(=NO)C[C@@H]3[C@@]4(C)C=C(C#N)C(=O)C(C)(C)[C@@H]4CC[C@@]3(C)[C@]1(C)CC2` [Compound 63295, (4aS,6aR,6bR,8aR,12aR,12bR,14aR,14bS)-methyl 11-cyano-14-(hydroxyimino)-2,2,6a,6b,9,9,12a-heptamethyl-10-oxo-1,2,3,4,4a,5,6,6a,6b,7,8,8a,9,10,12a,12b,13,14,14a,14b-icosahydropicene-4a-carboxylate], the values for the IC50 (with RAW264.7 macrophages (Mus musculus); in data set [1] (Mus musculus)) were greater than 200 nM and roughly 20 nM, respectively.
Regarding `CC1(C)CC[C@]2(C(=O)OCc3ccccc3)CC[C@]3(C)[C@H](C(=O)C[C@@H]4[C@@]5(C)C=C(C#N)C(=O)C(C)(C)[C@@H]5CC[C@]43C)[C@@H]2C1` [Compound 63323, (4aS,6aR,6bR,8aR,12aR,12bR,14aR,14bS)-benzyl 11-cyano-2,2,6a,6b,9,9,12a-heptamethyl-10,14-dioxo-1,2,3,4,4a,5,6,6a,6b,7,8,8a,9,10,12a,12b,13,14,14a,14b-icosahydropicene-4a-carboxylate], the Mortality in the data set on mice (3 mg/kg), in the data set on mice (10 mg/kg) and in the data set on mice (30 mg/kg) was 0/5 throughout. Also, in data set [1] (Mus musculus), the IC50 was roughly 40 nM.
Consider `Cc1nnc([C@]23CCC(C)(C)C[C@H]2[C@H]2C(=O)C[C@@H]4[C@@]5(C)C=C(C#N)C(=O)C(C)(C)[C@@H]5CC[C@@]4(C)[C@]2(C)CC3)s1` [Compound 63274, (4aR,6aR,6bR,8aS,12aS,12bR,14aR,14bR)-4,4,6a,6b,11,11,14b-heptamethyl-8a-(5-methyl-1,3,4-thiadiazol-2-yl)-3,13-dioxo-3,4,4a,5,6,6a,6b,7,8,8a,9,10,11,12,12a,12b,13,14,14a,14b-icosahydropicene-2-carbonitrile], for which the IC50 in the data set with RAW264.7 macrophages (Mus musculus) is greater than 200 nM; in data set [1] (Mus musculus) it was roughly 70 nM.
Consider `CC1(C)CC[C@]2(C(=O)NCC(F)(F)F)CC[C@]3(C)[C@H](C(=O)C[C@@H]4[C@@]5(C)Cc6cnoc6C(C)(C)[C@@H]5CC[C@]43C)[C@@H]2C1` [Compound 63223], for which the IC50 (in the data set with RAW264.7 macrophages; in data set [1]) was greater than 200 nM in each case.
With `CN(C)C(=O)[C@]12CCC(C)(C)C[C@H]1[C@H]1C(=O)C=C3[C@@]4(C)C=C(C#N)C(=O)C(C)(C)[C@@H]4CC[C@@]3(C)[C@]1(C)CC2` [Compound 63324, reference compound], the Mortality with mice (3 mg/kg), in the data set on mice (10 mg/kg) and in the data set on mice (30 mg/kg) was 0/5 in each case.
On to `CN(C)C(=O)[C@]12CCC(C)(C)C[C@H]1[C@H]1C(=O)C[C@@H]3[C@@]4(C)C=C(C#N)C(=O)C(C)(C)[C@@H]4CC[C@@]3(C)[C@]1(C)CC2` [Compound 63326, (4aS,6aR,6bR,8aR,12aR,12bR,14aR,14bS)-11-cyano-N,N,2,2,6a,6b,9,9,12a-nonamethyl-10,14-dioxo-1,2,3,4,4a,5,6,6a,6b,7,8,8a,9,10,12a,12b,13,14,14a,14b-icosahydropicene-4a-carboxamide], for which the Mortality in the data set on mice (3 mg/kg) is given as 0/5; in the data set on mice (10 mg/kg), 1/5; in the data set with mice (30 mg/kg), 0/5. The IC50 in data set [1] (Mus musculus) was roughly 50 nM.
`COC(=O)[C@]12CCC(C)(C)C[C@H]1[C@H]1C(=O)C[C@@H]3[C@@]4(C)Cc5cnoc5C(C)(C)[C@@H]4CC[C@@]3(C)[C@]1(C)CC2` [Compound 63195]: the IC50 (with RAW264.7 macrophages; in data set [1]) was greater than 200 nM throughout.
As to `COC(=O)[C@]12CCC(C)(C)C[C@H]1[C@H]1NC(=O)C[C@@H]3[C@@]4(C)C=C(C#N)C(=O)C(C)(C)[C@@H]4CC[C@@]3(C)[C@]1(C)CC2` [Compound 63296, (4aR,6aR,6bS,8aS,12aR,12bR,15aR,15bR)-methyl 2-cyano-4,4,6a,6b,11,11,15b-heptamethyl-3,14-dioxo-4,4a,5,6,6a,6b,7,8,8a,9,10,11,12,12a,12b,13,14,15,15a,15b-icosahydro-3H-dinaphtho[1,2-b:2′,1′-d]azepine-8a-carboxylate], the figures for the 50% inhibitory concentration (IC50) (in the data set with RAW264.7 macrophages (Mus musculus); in data set [1] (Mus musculus)) were greater than 200 nM and roughly 200 nM, respectively.
